Values joined by “and” are separate entries in the source; they are usually repeats but may differ in a detail not shown here. Equal values may be shown once. Values belong to the molecule of their own block, whether it stands above or below them.
Key:
[1] = target: T1, Acetylcholinesterase (Homo sapiens, UniProt P22303); assay: Inhibition of AChE (unknown origin) by Ellman's method
[2] = target: T1, Acetylcholinesterase; assay: Inhibition of AChE (unknown origin) incubated for 40 mins by Ellman's method
[3] = target: T2, Gamma-aminobutyric acid receptor subunit alpha-3 (Homo sapiens, UniProt P34903); assay: Binding affinity to human recombinant GABAA alpha3 receptor assessed as inhibition constant incubated for 1 hrs by liquid scintillation counting analysis
T2 sequence (P34903 whole entry): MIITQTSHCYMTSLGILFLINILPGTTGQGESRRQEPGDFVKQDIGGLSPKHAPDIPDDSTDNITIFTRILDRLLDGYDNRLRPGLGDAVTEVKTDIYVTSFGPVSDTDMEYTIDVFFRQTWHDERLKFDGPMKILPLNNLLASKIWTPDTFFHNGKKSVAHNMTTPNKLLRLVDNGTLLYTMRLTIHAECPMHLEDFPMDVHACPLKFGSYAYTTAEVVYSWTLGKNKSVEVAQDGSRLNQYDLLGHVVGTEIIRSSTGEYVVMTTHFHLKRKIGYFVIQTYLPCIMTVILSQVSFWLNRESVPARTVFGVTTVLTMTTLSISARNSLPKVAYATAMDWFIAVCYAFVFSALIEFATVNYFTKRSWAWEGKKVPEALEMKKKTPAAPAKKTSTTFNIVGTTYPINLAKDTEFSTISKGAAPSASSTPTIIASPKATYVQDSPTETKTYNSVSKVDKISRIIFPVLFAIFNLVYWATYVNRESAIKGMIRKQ

[4] = target: T3, Gamma-aminobutyric acid receptor subunit alpha-1 (Homo sapiens, UniProt P14867); assay: Binding affinity to human recombinant GABAA alpha1 receptor assessed as inhibition constant incubated for 1 hrs by liquid scintillation counting analysis
T3 sequence (P14867 whole entry): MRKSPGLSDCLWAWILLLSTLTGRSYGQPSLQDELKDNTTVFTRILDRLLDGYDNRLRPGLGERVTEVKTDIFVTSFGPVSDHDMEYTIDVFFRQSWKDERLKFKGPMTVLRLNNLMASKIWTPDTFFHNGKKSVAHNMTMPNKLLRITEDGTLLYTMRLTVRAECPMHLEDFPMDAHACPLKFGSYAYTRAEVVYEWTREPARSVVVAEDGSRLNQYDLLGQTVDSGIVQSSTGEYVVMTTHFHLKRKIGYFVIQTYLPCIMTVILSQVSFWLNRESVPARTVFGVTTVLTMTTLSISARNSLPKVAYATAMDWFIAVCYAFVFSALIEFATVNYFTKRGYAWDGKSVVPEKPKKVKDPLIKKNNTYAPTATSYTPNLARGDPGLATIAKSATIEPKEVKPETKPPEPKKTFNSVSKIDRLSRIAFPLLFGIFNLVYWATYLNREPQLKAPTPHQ

[5] = target: GABA-A receptor; anion channel; assay: Displacement of [3H]flunitrazepam from GABAA (unknown origin ) receptor by radioligand binding assay; assay type: protein-complex assay, Homo sapiens
[6] = target: T4, Gamma-aminobutyric acid receptor subunit alpha-2 (Homo sapiens, UniProt P47869); assay: Binding affinity to human recombinant GABAA alpha2 receptor assessed as inhibition constant incubated for 1 hrs by liquid scintillation counting analysis
T4 sequence (P47869 whole entry): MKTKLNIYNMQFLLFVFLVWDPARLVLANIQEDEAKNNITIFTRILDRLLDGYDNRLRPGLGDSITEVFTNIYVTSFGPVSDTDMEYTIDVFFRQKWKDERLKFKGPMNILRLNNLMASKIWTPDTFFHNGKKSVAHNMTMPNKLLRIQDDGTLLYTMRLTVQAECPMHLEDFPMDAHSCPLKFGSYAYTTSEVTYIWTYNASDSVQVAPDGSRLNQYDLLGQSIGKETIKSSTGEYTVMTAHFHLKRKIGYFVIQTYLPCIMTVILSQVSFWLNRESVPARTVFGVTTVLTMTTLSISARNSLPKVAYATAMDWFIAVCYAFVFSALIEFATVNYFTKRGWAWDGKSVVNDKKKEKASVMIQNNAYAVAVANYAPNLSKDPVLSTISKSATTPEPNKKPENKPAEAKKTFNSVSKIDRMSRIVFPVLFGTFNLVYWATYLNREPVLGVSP

[7] = target: T5, Gamma-aminobutyric acid receptor subunit alpha-5 (Homo sapiens, UniProt P31644); assay: Binding affinity to human recombinant GABAA alpha5 receptor assessed as inhibition constant incubated for 1 hrs by liquid scintillation counting analysis
T5 sequence (P31644 whole entry): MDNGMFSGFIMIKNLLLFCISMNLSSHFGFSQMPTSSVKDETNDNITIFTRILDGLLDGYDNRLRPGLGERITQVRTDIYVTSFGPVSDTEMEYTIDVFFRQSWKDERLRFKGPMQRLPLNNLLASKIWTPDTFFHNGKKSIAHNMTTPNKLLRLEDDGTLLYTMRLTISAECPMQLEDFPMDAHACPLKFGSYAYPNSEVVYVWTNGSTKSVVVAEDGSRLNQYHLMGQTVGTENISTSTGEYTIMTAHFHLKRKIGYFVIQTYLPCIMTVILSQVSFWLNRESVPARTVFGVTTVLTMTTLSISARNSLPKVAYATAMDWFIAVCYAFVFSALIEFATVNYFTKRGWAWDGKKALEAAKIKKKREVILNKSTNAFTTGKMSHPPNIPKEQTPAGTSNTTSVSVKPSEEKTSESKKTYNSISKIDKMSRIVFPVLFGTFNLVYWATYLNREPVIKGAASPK

[8] = target: Gamma-aminobutyric acid receptor subunit alpha-4 (Homo sapiens, UniProt P48169); assay: Binding affinity to human recombinant GABAA alpha4 receptor assessed as inhibition constant incubated for 1 hrs by liquid scintillation counting analysis
[9] = target: Gamma-aminobutyric acid receptor subunit alpha-6 (Homo sapiens, UniProt Q16445); assay: Binding affinity to human recombinant GABAA alpha6 receptor assessed as inhibition constant incubated for 1 hrs by liquid scintillation counting analysis
[10] = target: T6, 5-hydroxytryptamine receptor 2C (Homo sapiens, UniProt P28335); assay: Binding affinity to 5-HT2C (unknown origin) assessed as inhibition constant
T6 sequence (P28335 whole entry): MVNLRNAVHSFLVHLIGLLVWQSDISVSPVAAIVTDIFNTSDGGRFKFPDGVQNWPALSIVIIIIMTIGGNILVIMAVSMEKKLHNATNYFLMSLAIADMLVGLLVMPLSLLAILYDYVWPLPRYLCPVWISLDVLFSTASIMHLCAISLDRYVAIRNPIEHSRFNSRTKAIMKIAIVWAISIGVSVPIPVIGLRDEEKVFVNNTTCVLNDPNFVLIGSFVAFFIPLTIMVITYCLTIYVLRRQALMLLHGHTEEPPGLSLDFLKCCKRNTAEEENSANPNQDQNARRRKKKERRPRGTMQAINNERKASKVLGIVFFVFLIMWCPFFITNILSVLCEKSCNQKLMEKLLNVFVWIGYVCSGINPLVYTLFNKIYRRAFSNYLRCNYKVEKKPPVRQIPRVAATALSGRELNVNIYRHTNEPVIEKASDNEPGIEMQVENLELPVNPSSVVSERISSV

[11] = target: 5-hydroxytryptamine receptor 2A (Rattus norvegicus, UniProt P14842); assay: Displacement of [3H]-ketanserin from rat 5-HT2A expressed in mouse NIH/3T3 cells assessed as inhibition constant by Cheng-Prusoff equation analysis; assay type: cell-based
[12] = target: 5-hydroxytryptamine receptor 5A (Homo sapiens, UniProt P47898); assay: Binding affinity to 5-HT5AR (unknown origin) assessed as inhibition constant
[13] = target: T7, 5-hydroxytryptamine receptor 2B (Homo sapiens, UniProt P41595); assay: Binding affinity to 5-HT2BR (unknown origin) assessed as inhibition constant
[14] = target: T1, Acetylcholinesterase; assay: Inhibition of AChE (unknown origin)
[15] = target: Cholinesterase (Homo sapiens, UniProt P06276); assay: Inhibition of BuChE (unknown origin)
[16] = target: Glutamate receptor ionotropic, NMDA 2B (Homo sapiens, UniProt Q05586+Q13224); assay: Inhibition of NMDA receptor NR2B subunit (unknown origin)
[17] = target: 5-hydroxytryptamine receptor 2B (Rattus norvegicus, UniProt P30994); assay: Displacement of [3H]-ketanserin from rat 5-HT2B expressed in mouse NIH/3T3 cells assessed as inhibition constant by Cheng-Prusoff equation analysis; assay type: cell-based
[18] = target: T7, 5-hydroxytryptamine receptor 2B; assay: Binding affinity to 5-HT2B (unknown origin) assessed as equilibrium binding constant
[19] = target: cGMP-specific 3',5'-cyclic phosphodiesterase (Homo sapiens, UniProt O76074); assay: Binding affinity to PDE5 (unknown origin) assessed as inhibition constant

T7 sequence (P41595 whole entry): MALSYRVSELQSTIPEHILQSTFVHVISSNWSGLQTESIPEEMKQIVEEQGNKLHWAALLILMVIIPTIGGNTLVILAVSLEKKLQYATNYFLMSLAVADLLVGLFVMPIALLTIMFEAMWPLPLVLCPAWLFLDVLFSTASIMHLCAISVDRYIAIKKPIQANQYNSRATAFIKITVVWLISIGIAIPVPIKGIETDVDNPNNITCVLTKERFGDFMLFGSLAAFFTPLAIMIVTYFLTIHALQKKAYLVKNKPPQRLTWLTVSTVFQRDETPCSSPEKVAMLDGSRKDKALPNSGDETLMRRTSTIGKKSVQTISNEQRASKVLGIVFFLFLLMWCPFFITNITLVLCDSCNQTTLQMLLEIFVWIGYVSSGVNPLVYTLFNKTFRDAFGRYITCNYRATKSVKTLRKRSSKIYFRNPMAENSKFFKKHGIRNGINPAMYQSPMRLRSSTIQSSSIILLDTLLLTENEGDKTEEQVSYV
Sequence of 5-hydroxytryptamine receptor 5A (P47898 whole entry): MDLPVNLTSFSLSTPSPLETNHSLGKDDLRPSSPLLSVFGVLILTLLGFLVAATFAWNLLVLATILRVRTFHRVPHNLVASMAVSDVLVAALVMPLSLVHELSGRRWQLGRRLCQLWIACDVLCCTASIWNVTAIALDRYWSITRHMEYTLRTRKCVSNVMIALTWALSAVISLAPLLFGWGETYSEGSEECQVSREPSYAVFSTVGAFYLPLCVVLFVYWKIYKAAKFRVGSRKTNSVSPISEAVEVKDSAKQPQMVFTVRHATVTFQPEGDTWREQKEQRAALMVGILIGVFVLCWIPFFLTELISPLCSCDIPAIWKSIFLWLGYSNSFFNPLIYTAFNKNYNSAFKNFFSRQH
T1 sequence (P22303 whole entry): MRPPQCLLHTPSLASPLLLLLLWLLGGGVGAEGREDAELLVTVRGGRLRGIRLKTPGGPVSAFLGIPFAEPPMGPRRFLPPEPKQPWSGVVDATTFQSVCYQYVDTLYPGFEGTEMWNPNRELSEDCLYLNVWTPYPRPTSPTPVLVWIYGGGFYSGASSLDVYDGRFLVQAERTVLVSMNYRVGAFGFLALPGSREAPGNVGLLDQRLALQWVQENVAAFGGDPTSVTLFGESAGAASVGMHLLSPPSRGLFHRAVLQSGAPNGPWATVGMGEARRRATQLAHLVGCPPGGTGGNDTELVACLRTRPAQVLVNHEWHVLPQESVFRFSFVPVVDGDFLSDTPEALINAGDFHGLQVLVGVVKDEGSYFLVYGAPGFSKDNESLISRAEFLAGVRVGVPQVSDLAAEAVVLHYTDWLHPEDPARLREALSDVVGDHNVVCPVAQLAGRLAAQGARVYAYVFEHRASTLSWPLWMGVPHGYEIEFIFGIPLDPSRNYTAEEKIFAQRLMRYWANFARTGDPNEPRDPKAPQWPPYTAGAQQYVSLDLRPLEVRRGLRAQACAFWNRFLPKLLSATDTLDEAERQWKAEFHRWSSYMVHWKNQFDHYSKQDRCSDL
Sequence of 5-hydroxytryptamine receptor 2A (P14842 whole entry): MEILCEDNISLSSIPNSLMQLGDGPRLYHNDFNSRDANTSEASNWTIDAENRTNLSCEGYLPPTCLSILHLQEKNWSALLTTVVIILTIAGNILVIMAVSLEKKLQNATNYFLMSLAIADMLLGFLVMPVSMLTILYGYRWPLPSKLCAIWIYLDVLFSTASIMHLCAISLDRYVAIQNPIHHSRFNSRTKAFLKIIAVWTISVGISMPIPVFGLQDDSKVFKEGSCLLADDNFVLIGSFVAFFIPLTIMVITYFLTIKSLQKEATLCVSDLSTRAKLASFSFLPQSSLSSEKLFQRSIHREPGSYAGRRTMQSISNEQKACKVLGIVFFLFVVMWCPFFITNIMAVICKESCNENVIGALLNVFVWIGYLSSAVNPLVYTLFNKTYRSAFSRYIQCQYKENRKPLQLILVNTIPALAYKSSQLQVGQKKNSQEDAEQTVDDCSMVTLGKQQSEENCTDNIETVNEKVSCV
Sequence of Cholinesterase (P06276 whole entry): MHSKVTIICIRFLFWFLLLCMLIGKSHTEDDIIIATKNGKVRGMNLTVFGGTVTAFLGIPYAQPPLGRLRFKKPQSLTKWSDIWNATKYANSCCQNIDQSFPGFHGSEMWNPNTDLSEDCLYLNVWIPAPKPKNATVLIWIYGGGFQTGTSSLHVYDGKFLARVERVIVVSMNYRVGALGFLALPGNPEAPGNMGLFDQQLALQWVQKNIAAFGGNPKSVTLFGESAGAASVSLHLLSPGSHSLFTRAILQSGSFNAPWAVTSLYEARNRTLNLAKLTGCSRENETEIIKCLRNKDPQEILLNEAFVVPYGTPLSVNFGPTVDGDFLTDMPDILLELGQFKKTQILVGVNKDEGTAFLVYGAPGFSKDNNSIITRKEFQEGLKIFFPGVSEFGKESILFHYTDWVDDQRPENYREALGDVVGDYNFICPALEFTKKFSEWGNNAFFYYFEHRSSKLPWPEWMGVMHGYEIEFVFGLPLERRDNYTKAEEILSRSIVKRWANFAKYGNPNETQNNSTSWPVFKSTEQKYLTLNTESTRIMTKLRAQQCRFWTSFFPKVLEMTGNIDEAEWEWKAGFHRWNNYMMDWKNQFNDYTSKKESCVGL
Sequence of Glutamate receptor ionotropic, NMDA 2B (Q13224 whole entry, one chain of several): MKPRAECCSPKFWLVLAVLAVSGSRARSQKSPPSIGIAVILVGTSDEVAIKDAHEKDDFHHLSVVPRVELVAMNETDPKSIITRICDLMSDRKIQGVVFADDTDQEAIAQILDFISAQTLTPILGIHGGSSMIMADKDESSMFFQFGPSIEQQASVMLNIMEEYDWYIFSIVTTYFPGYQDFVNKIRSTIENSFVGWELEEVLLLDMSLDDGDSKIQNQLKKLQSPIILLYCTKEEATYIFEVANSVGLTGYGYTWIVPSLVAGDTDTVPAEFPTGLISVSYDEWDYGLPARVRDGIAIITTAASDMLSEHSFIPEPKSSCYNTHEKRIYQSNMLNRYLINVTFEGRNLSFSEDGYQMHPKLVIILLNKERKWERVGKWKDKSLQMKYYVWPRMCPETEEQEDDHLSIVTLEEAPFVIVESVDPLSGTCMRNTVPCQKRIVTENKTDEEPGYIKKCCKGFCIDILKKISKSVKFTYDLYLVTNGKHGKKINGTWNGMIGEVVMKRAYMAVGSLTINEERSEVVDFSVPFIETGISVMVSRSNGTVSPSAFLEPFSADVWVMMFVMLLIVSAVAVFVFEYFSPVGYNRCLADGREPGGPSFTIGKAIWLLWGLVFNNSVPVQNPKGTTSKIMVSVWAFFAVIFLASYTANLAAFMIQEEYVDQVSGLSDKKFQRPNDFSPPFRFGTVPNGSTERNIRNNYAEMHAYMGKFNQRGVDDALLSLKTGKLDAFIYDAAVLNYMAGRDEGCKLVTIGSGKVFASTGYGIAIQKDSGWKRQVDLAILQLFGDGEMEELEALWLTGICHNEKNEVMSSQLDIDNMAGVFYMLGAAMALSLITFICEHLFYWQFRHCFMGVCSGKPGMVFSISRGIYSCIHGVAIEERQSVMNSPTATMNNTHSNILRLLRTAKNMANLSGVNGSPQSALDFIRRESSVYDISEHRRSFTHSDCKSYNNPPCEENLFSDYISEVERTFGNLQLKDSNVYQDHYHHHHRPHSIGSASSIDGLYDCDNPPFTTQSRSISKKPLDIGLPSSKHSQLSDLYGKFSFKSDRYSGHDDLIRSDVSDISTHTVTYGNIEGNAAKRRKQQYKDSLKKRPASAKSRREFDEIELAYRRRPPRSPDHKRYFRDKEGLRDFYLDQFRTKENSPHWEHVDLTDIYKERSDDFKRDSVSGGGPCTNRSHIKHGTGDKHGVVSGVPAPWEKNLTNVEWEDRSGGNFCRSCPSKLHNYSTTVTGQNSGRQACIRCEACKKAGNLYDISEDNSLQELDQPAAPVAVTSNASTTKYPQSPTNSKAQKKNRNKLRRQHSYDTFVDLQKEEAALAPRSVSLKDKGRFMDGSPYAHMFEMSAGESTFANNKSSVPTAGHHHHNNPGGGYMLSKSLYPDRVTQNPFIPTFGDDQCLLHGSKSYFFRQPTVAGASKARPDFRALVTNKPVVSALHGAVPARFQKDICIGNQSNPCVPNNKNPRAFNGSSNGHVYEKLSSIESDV
Sequence of Gamma-aminobutyric acid receptor subunit alpha-4 (P48169 whole entry): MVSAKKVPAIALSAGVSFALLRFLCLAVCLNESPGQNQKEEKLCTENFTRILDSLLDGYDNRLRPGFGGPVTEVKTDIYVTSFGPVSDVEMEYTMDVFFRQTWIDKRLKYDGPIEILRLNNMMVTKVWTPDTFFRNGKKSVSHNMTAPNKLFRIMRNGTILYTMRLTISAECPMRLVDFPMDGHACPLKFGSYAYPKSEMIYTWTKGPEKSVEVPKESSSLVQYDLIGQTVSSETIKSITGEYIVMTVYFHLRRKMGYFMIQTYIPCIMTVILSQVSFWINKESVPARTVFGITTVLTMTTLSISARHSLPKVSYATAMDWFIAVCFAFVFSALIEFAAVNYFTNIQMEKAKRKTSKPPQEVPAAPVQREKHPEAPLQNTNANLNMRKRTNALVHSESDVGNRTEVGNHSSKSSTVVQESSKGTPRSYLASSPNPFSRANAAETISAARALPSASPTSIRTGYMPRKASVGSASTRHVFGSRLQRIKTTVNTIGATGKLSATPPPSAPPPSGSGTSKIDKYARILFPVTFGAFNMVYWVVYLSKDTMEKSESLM
Sequence of Gamma-aminobutyric acid receptor subunit alpha-6 (Q16445 whole entry): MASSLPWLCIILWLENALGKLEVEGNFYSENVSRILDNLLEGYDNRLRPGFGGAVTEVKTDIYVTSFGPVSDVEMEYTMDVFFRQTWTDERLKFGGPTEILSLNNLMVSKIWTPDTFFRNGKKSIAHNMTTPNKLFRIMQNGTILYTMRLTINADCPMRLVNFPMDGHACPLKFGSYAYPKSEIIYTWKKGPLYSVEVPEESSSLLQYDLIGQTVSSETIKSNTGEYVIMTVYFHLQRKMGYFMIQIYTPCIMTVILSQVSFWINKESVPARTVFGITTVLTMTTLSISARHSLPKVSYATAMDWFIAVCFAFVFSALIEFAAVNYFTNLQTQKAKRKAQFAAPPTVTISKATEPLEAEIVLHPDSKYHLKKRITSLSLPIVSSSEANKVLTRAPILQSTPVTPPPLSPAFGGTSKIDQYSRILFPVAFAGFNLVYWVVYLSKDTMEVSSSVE

Structure (SMILES): Cn1c2ccccc2c2cc[n+](-c3ccc(Br)cc3Br)cc21
- IC50 [1]: 110 nM
- IC50 [2]: 110 nM

Structure (SMILES): COCc1c(C(=O)OC(C)C)ncc2[nH]c3ccc(OCc4ccccc4)cc3c12 [ABECARNIL]
- Ki [3]: 4 nM
- Ki [4]: 1 nM
- IC50 [5]: 1 nM
- Ki [6]: 2 nM
- Ki [7]: 5 nM
- Ki [8]: 1200 nM
- Ki [9]: 6400 nM

Structure (SMILES): COc1cccc2[nH]c3c(c12)CCN=C3C
- Ki [10]: 65 nM

Structure (SMILES): Brc1cccc2[nH]c3c(c12)CCNC3
- Ki [11]: < 180 nM

- Ki [12]: 100 nM
- Ki [10]: 200 nM
- Ki [13]: 100 nM
Structure (SMILES): COc1ccc2[nH]c3c(-c4cn(C)c5ccccc45)nccc3c2c1

Structure (SMILES): Cc1ccc2c(c1)c1cc[n+](-c3ccccc3)cc1n2C
- IC50 [14]: 420 nM
- IC50 [1]: 420 nM
- IC50 [15]: 17000 nM

- IC50 [16]: 87 nM
Structure (SMILES): Oc1ccc(CCCN2CCc3c([nH]c4ccccc34)C2)cc1

- Ki [17]: 0.2 nM
- Ki [11]: 5 nM
- Kb [18]: < 0.3 nM and 0.08 nM
Structure (SMILES): COc1ccc(CC2NCCc3c2[nH]c2cc(C)c(C)cc32)cc1OC (stereo not given)

- Ki [12]: 170 nM
- Ki [10]: 170 nM
- Ki [13]: 170 nM
Structure (SMILES): Oc1ccc2[nH]c3c(-c4c[nH]c5ccccc45)nccc3c2c1

- IC50 [16]: 27000 nM
Structure (SMILES): c1ccc(C[C@@H]2NCCc3c2[nH]c2ccccc32)cc1

- Ki [19]: 64 nM
Structure (SMILES): O=C(c1ccc(-c2ccc([N+](=O)[O-])cc2)o1)N1CCc2c([nH]c3ccccc23)C1c1ccc2c(c1)OCO2 (stereo not given)

Structure (SMILES): COC(=O)c1cc2c(cn1)[nH]c1ccccc12 [BETA-CCM]
- Ki [3]: 72 nM
- Ki [4]: 2 nM
- IC50 [5]: 1 nM
- Ki [6]: 7 nM
- Ki [7]: 44 nM
- Ki [8]: 1000 nM
- Ki [9]: 4400 nM

- Ki [12]: 170 nM
- Ki [10]: 170 nM
- Ki [13]: 170 nM
Structure (SMILES): c1ccc2c(-c3nccc4c3[nH]c3ccccc34)c[nH]c2c1

Structure (SMILES): CC(C)n1c2ccccc2c2cc[n+](-c3ccccc3)cc21
- IC50 [14]: 540 nM
- IC50 [1]: 3100 nM
- IC50 [15]: 37000 nM

- Ki [19]: 86 nM
Structure (SMILES): CC(C)CCn1c2c(c3c(O)cc(O)cc31)CCn1c-2nc2ccccc2c1=O

Source: ChEMBL document CHEMBL5233266, “β-Carboline as a Privileged Scaffold for Multitarget Strategies in Alzheimer's Disease Therapy” (J Med Chem, 2021)
